This is an account of results in patent US11031562B2, “Metal complexes” (Merck Patent GmbH, priority 2015, dated 2021).

Common to all, as to format: physicochemical
Series [1] is described as follows: Oxidation and reduction potentials by CV (HOMO, LUMO). The note with it: in eV (unit assumed); for HOMO: Ox. in DCM; for LUMO: Red. in THF.
Series [2] in a line: Photoluminescence in solution (PL-max., PL quantum efficiency). The note with it: solvent toluene; room temperature, degassed solution.
Series [3] is described as follows: Thermal stability: thermal storage at 360° C. for 7 days, checked by 1H NMR.
Series [4] in a line: Photostability in anhydrous C6D6 solution under irradiation with light of about 455 nm, checked by 1H NMR. The note with it: irradiation with light of wavelength about 455 nm.

`c1ccc(-c2cc(-c3ccccc3)cc(-c3cccc(-c4cc[c]5c(c4)-c4cccc[n+]4[Ir-3]546([c]5ccc(-c7cccc(-c8cc(-c9ccccc9)cc(-c9ccccc9)c8)c7)cc5-c5cccc[n+]54)[c]4ccc(-c5cccc(-c7cc(-c8ccccc8)cc(-c8ccccc8)c7)c5)cc4-c4cccc[n+]46)c3)c2)cc1` [Ir1, reference compound]: in series [1], the HOMO is reported as −5.09 and the LUMO is given as −1.99. In series [2], this compound came in with a PL-max. of 513 and a PLQE of 0.97.

Turning to `Cc1cc2[n+](cc1-c1ccccc1)[Ir-3]13([c]4ccccc4-c4cccc[n+]41)([c]1ccccc1-c1cccc[n+]13)[c]1ccccc1-2` [Ir2, reference compound], the Therm. stab. result in series [3] is listed as “decomposition”. Besides, the Photo. stab. entry in series [4] is “decomposition”. In series [1], the HOMO was −5.05 and the LUMO was −1.71. In series [2], this compound returned a PL-max. of 516 and a PLQE of 0.97.

In the case of `O=C1Oc2cc3cc(c2)OC(=O)c2ccc4[c](c2)[Ir-3]25([c]6cc1ccc6-c1cccc[n+]12)([c]1cc(ccc1-c1cccc[n+]15)C(=O)O3)[n+]1ccccc1-4` [Ir(L200)], the Therm. stab. result in series [3] is “no decomp”. Further, the Photo. stab. result in series [4] is reported as “no decomp”. Moreover, in series [1], the HOMO is recorded as −5.66 and the LUMO is on record as −2.64. Besides, in series [2], the PL-max. is 552 and the PLQE was determined as 0.94.

On to `CN1C(=O)c2ccc3[c](c2)[Ir-3]245([c]6cc(ccc6-c6cccc[n+]62)C(=O)N(C)c2cc1cc(c2)N(C)C(=O)c1ccc([c]4c1)-c1cccc[n+]15)[n+]1ccccc1-3` [Ir(L300)], for which, in series [3], the Therm. stab. result is “no decomp”. In series [4], the Photo. stab. entry is on record as “no decomp”. In series [1], this compound showed an HOMO of −5.34 and an LUMO of −2.29. In series [2], the PL-max. was determined as 539 and the PLQE worked out at 0.95.
